Source: US20110184018A1, “METHOD FOR TREATING PERIPHERAL NEUROPATHIC PAIN” (LOHOCLA RESEARCH CORPORATION, priority 2005, published 2011)

Legend:
[1] = Plasma and brain levels after oral administration of DCUK-OEt; type: in vivo; settings: rat, 200 mg/kg DCUK-OEt emulsion by oral gavage
Procedure: Oral administration has been the major route of drug administration for the treatment of many diseases. […] Groups of rats were administered 200 mg/kg DCUK-OEt prepared as an emulsion in gelatin:canola oil (50:50) by oral gavage and sacrificed at 0.25, 0.5, 1, 1.5, 2, 4, 6, and 8 hours following administration, in order to collect the blood and brains for analysis. Plasma and brain levels of DCUKA and DCUK-OEt were analyzed by liquid chromatographic separation and mass spectrometric detection. Orally administered DCUK-OEt was converted to DCUKA by plasma and brain carboxylesterases. Peak levels of plasma DCUK-OEt were reached by about 1 hour post-administration, and fell to low levels by about 2 hours. DCUKA plasma levels peaked at about 2 hours and then fell off slowly over the next 4 hours. Brain DCUK-OEt levels peak at about 1 hour post-administration.
Oral administration. Following overnight food deprivation, groups of 3 rats were administered 200 mg/kg DCUK-OEt by oral gavage (40 mg/mL DCUK-OEt at 5 mL/kg body weight). Groups of rats were anesthetized and sacrificed by decapitation at 0.25, 0.5, 1, 1.5, 2, 4, 6, and 8 hours post-administration. Trunk blood was collected into tubes containing K2EDTA anticoagulant and brains were removed, washed thoroughly with 0.9% NaCl, and frozen on dry ice. Blood samples were centrifuged at 4000 rpm for 10 minutes. Plasma supernatant was removed and frozen at −80° C. until the time of the assay.
Liquid chromatographic-mass spectrometric determination of plasma and brain DCUKA and DCUK-OEt levels. Rat plasma sample preparation involved a simple protein precipitation procedure (100 μL plasma+250 μL acetonitrile containing 25 ng/mL of the internal standard, DCUK-OMe). After vortexing (5 minutes) and centrifugation (5000 g, 5 minutes, +4° C.), 200 μL of the supernatant was injected into the HPLC system and loaded onto the extraction column. Frozen brain tissue samples (about 0.5 g) were homogenized over liquid nitrogen using a mortar and pestle. The homogenized powder was transferred into the tubes containing 1.5 mL ice-cold 100% acetonitrile and 25 ng/mL DCUK-OMe (used as an internal standard). Following procedures were all performed on ice or at 4° C. The samples were further homogenized using an electric homogenizer for 30 seconds at 4° C. Subsequently, the tubes were placed into the ultrasonic bath for 30 minutes (on ice), and centrifuged afterwards at 1300 g for 10 minutes at 4° C. The supernatant was transferred into the HPLC tube. The pellet was re-extracted with 500 μL MeOH (containing 25 ng/mL DCUK-OMe), sonicated for 10 minutes, and centrifuged (10 minutes at 1300 g, 4° C.). The MeOH phase was combined with the acetonitrile solution from the first extraction step and 500 μL of the solution was directly injected into the HPLC system.
The two HPLC systems consisted of the following components (all series 1100, Agilent Technologies, Palo Alto, USA): HPLC I: G1312A binary pump, G1379A degasser; HPLC II: G1312A binary pump, and a G1316A column thermostat. A Sciex API 4000 triple-stage quadrupole mass spectrometer was used as detector (Applied Biosystems, Foster City, USA). The HPLC systems were connected via a 6-port column switching valve mounted on a step motor. The HPLC's switching valve and the mass spectrometer were controlled by the Analyst software (version 1.3.1., Applied Biosystems). […]

[2] = molecular target: T1, cannabinoid receptor 1 (CB1) (Homo sapiens, UniProt P21554); assay: Displacement of [3H]CP55940 from CB1 receptors expressed in HEK293 cells; type: binding; settings: [3H]CP55940 displacement, Cheng-Prusoff
T1 construct: expressed in transfected cells; host or cells: HEK293 cells
Source text: The cannabinoid receptor 1 (CB1) is a G-protein coupled receptor (GPCR), which can modulate the enzymatic activity of adenylyl cyclase (AC), inhibit calcium influx into neurons and increase neuronal potassium permeability. The CB1 receptors have been reported to be intimately involved in the progression and control of chronic pain. The CB1 receptors reportedly are involved in both the amelioration of anxiety and depression and may also be important in cognitive function and eating behavior. The interaction of a chemical entity with a CB1 receptor can be measured by the binding of selective radioligands to the native receptor or a CB1 receptor expressed in model cell systems. To ascertain the extent to which a non-radioactive ligand binds to a CB1 receptor the displacement of the radioactive CB1 selective ligand with DCUK-OEt was performed. The methods of assay and calculations for binding constants can be accessed, for example, on the PDSP website (pdsp(dot)med(dot)unc(dot)edu/indexR(dot)html). For binding of DCUK-OEt to the CB1 receptor, the displacement of the CB1 selective radioligand [^3H] CP55940 from CB1 receptors expressed in HEK293 cells was monitored. The log IC50 was determined from the displacement data, and the Ki values for DCUKA and DCUK-OEt were calculated using the Cheng-Prusoff equation.

[3] = Solubility limit in aqueous assay buffers; type: physicochemical; settings: aqueous assay buffers (incubation or bath solutions), aqueous buffer, kinetic from dmso stock, DMSO 0.2 to 1%, read-out: concentrations that could not be tested due to limited solubility in aqueous buffers
Procedure: Drugs. For all in vitro assays, stock solutions of DCUKA or DCUK-OMe were prepared fresh daily in dimethylsulfoxide (DMSO) then diluted into the incubation or bath solutions with sonication to the desired concentrations for experiments. Due to their limited solubility in aqueous buffers, DCUKA concentrations >300 μM and DCUK-OMe concentrations >100 μM could not be tested. In those assays where high ionic strength buffers were used, i.e., [^3H]batrachiotoxin (BTX) binding in depolarized synaptosomes, concentrations >50 μM could not be tested. The final concentration of DMSO in the assays ranged from 0.2 to 1%. In all assays, drug effects were compared with effects measured in the presence of the identical concentration of DMSO without drug.

T1 sequence (P21554 whole entry, species assumed): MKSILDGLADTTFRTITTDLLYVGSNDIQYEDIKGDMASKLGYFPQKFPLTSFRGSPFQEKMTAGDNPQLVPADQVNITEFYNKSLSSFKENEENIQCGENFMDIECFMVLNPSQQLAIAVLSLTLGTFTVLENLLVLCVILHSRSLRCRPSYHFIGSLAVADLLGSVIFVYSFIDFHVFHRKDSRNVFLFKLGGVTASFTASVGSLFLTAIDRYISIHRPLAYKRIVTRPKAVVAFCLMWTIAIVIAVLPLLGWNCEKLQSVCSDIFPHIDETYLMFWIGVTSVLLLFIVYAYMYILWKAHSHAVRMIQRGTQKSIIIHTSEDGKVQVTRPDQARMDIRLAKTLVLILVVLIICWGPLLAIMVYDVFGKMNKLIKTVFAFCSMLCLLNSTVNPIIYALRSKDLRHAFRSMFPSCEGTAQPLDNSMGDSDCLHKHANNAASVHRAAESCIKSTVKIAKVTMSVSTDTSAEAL

Row | time at which plasma level fell to low levels [1] | time of peak brain level ([1]; analyte = label) | SMILES | time of peak plasma level ([1]; analyte = label) | Ki [2] [µM] | brain level at about 8 hours post-administration ([1]; analyte DCUKA) | solubility [3] [µM]
1 | about 2 hours | about 1 hour | CCOC(=O)c1cc(NC(=O)N(c2ccccc2)c2ccccc2)c2c(Cl)cc(Cl)cc2n1 [DCUK-OEt, N,N-diphenyl-4-ureido-5,7-dichloro-2-carboxy quinoline ethyl ester] | about 1 hour | 7.4 |  | 
2 |  |  | O=C(O)c1cc(NC(=O)N(c2ccccc2)c2ccccc2)c2c(Cl)cc(Cl)cc2n1 [DCUKA, N,N-diphenyl-4-ureido-5,7-dichloro-2-carboxyquinoline] | about 2 hour | > 10 | still elevated | > 300
